Reference: US6608027B1, “Macrocyclic peptides active against the hepatitis C virus” (Boehringer Ingelheim (Canada) Ltd, priority 1999, dated 2003)
Like-named read-outs stand apart in the source and are kept apart here.

Legend:
HCV NS3 protease type 1b = HCV NS3 protease type 1b (Hepatitis C virus genotype 1b, UniProt P26663); experiment: Recombinant HCV NS3 protease radiometric assay; assay type: biochemical
Protocol: The substrate used for the HCV NS3 protease radiometric assay, DDIVPC-SMSYTW (SEQ. ID NO.: 2), is cleaved between the cysteine and the serine residues by the enzyme. The sequence DDIVPC-SMSYTW (SEQ. ID NO.: 2) corresponds to the NS5A/NS5B natural cleavage site in which the cysteine residue in P2 has been substituted for a proline. The peptide substrate DDIVPC-SMSYTW (SEQ. ID NO.: 2) and the tracer biotin-DDIVPC-SMS[^125I-Y]TW (SEQ. ID NO.: 3) were incubated with the recombinant NS3 protease in the absence or in the presence of inhibitors. The separation of substrate from products was performed by adding avidin-coated agarose beads to the assay mixture followed by filtration. The amount of SMS[^125I-Y]TW (SEQ. ID NO.: 4) product found in the filtrate (with or without inhibitor) allowed for the calculation of the percentage of substrate conversion and of the percentage of inhibition.
Assay buffer: 50 mM Tris-HCl, pH 7.5, 30% (w/v) glycerol, 2% (w/ v) CHAPS, 1 mg/mL BSA, 1 mM TCEP (TCEP added just prior to use from a 1 M stock solution in water).
Substrate: DDIVPC-SMSYTW (SEQ. ID NO.: 2), 25 μM final concentration (from a 2 mM stock solution in DMSO stored at −20° C. to avoid oxidation).
Tracer: reduced mono-iodinated substrate(biotin-DDIVPC-SMS[^125I-Y]TW (SEQ. ID NO.: 3)) (≈1 nM final concentration).
HCV NS3 protease type 1b, 25 nM final concentration (from a stock solution in 50 mM sodium phosphate, pH 7.5, 10% glycerol, 300 mM NaCl, 5 mM DTT, 0.01% NP-40).
The assay was performed in a 96-well polypropylene plate. Each well contained:
20 μL substrate/tracer in assay buffer;
10 μL±inhibitor in 20% DMSO/assay buffer;
Blank (no inhibitor and no enzyme) and control (no inhibitor) were also prepared on the same assay plate.
The enzymatic reaction was initiated by the addition of the enzyme solution and the assay mixture was incubated for 60 min at 23° C. under gentle agitation. Twenty (20) μL of 0.025 N NaOH were added to quench the enzymatic reaction.
Twenty (20) μL of avidin-coated agarose beads (purchased from Pierce®) were added in a Millipore® MADP N65 filtration plate. The quenched assay mixture was transferred to the filtration plate, and incubated for 60 min at 23° C. under gentle agitation.
The plates were filtered using a Millipore® MultiScreen Vacuum Manifold Filtration apparatus, and 40 μL of the filtrate was transferred to an opaque 96-well plate containing 60 μL of scintillation fluid per well.
The filtrates were counted on a Packard® TopCount instrument using a ^125I-liquid protocol for 1 minute. The %inhibition was calculated with the following equation:
100−[(countsinh−countsblank)/(countsctl−countsblank)×100] […]

[1] = target: T1, His-NS3-NS4AFL (full-length NS3-NS4A protein complex) (Hepatitis C virus genotype 1b, UniProt P26663); experiment: Full-length NS3-NS4A heterodimer protein fluorogenic assay; assay type: biochemical, HCV genotype 1b
T1 construct: made in house; host or cells: Sf21 insect cells, recombinant baculovirus (Bac-to-Bac, pFastBac HTa)
T1 sequence (P26663 1658-1711): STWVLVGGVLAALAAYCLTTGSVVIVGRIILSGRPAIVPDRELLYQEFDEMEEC
T1 sequence (P26663 1027-1657): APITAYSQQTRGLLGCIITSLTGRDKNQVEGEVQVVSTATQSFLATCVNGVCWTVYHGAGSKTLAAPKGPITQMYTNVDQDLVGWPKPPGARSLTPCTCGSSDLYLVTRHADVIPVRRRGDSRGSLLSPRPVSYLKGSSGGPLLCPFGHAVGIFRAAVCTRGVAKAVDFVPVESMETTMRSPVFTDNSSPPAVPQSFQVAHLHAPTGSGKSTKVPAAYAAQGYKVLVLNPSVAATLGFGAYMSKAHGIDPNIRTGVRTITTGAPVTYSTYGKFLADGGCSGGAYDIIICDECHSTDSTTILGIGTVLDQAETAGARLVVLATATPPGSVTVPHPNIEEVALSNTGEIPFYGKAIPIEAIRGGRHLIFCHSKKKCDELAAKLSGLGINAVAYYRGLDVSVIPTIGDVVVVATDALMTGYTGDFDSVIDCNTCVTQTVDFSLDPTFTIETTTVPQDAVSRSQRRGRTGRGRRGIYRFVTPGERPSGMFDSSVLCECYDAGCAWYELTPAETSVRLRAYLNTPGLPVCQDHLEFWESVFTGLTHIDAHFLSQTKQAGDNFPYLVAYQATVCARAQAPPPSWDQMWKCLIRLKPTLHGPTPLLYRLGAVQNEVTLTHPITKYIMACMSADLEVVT
Description: The NS2-NS5B-3′non coding region was cloned by RT-PCR into the pCR®3 vector (Invitrogen) using RNA extracted from the serum of an HCV genotype 1b infected individual (provided by Dr. Bernard Willems, Hôpital St-Luc, Montréal, Québec, Canada). The NS3-NS4A region (NS3-NS4AFL) was then subcloned by PCR into the pFastBac™ HTa baculovirus expression vector (Gibco/BRL). The vector sequence includes a region encoding a 28-residue N-terminal sequence which contains a hexahistidine tag. The Bac-to-Bac™ baculovirus expression system (Gibco/BRL) was used to produce the recombinant baculovirus. His-NS3-NS4AFL was expressed by infecting 10^6 Sf21 cells/mL with the recombinant baculovirus at a multiplicity of infection of 0.1-0.2 at 27°. Authentic auto-proteolysis occurs during expression to produce a non covalent and stable NS3-NS4A protein complex (referred to as full-length “FL”). The infected culture was harvested 48 to 64 h later by centrifugation at 4°. The cell pellet was homogenized in 50 mM NaPO4, pH 7.5, 40% glycerol (w/v), 2 mM β-mercaptoethanol, in presence of a cocktail of protease inhibitors. His-NS3-NS4AFL was then extracted from the cell lysate with 1.5% NP-40, 0.5% Triton X-100, 0.5M NaCl, and a DNase treatment. After ultracentrifugation, the soluble extract was diluted 4-fold and bound on a Pharmacia Hi-Trap Ni-chelating column. The His-NS3-NS4AFL was eluted in a >90% pure form (as judged by SDS-PAGE), using a 50 to 400 mM imidazole gradient. The His-NS3-NS4AFL was stored at −80° in 50 mM sodium phosphate, pH 7.5, 10% (w/v) glycerol, 0.5 M NaCl, 0.25 M imidazole, 0.1% NP-40. It was thawed on ice and diluted just prior to use.
The protease activity of His-NS3-NS4AFL was assayed in 50 mM Tris-HCl, pH 8.0, 0.25 M sodium citrate, 0.01% (w/v) n-dodecyl-β-D-maltoside, 1 mM TCEP. Five (5) μM of the internally quenched substrate anthranilyl-DDIVPAbu[C(O)—O]-AMY(3-NO2)TW-OH (SEQ. ID NO.: 1) in presence of various concentrations of inhibitor were incubated with 1.5 nM of His-NS3-NS4AFL for 45 min at 23°. […] The reaction was terminated with the addition of 1M MES, pH 5.8. Fluorescence of the N-terminal product was monitored on a Perkin-Elmer LS-50B fluorometer equipped with a 96-well plate reader (excitation wavelength: 325 nm, emission wavelength: 423 nm).
The % inhibition was calculated with the following equation:
100−[(fluoinh−fluoblank)/(fluoctl−fluoblank)×100]
A non-linear curve fit with the Hill model was applied to the inhibition-concentration data, and the 50% effective concentration (IC50) was calculated by the use of SAS software (Statistical Software System; SAS Institute, Inc. Cary, N.C.).

[2] = asterisk (*) = radiometric assay of Example 49, read-out: enzyme activity (IC50 grade), asterisk
[3] = fluorogenic assay of Example 48, no asterisk, read-out: enzyme activity (IC50 grade)

Sequence of HCV NS3 protease type 1b (P26663 1027-1208): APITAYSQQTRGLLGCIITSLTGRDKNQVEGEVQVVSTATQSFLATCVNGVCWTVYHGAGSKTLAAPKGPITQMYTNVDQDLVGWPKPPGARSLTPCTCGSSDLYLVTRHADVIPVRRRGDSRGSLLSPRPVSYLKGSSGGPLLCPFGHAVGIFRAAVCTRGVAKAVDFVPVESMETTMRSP

For `COc1ccc2c(O[C@@H]3C[C@H]4C(=O)N[C@]5(C(=O)O)C[C@H]5CC/C=C\CS[C@@H](C)[C@H](NC(=O)OC(C)(C)C)C(=O)N4C3)cc(-c3ccccc3)nc2c1` [Compound 411], the IC50 (HCV NS3 protease type 1b; [2]) was > 1000 nM.

In the case of `COC(=O)[C@@]12CC1C=CCCCCC[C@H](NC(=O)OC(C)(C)C)C(=O)N1C[C@@H](O)C[C@H]1C(=O)N2` (stereo partly shown), the ring closure, yield of all isomers (from C=CCCCCC[C@H](NC(=O)OC(C)(C)C)C(=O)N1C[C@@H](O)C[C@H]1C(=O)N[C@]1(C(=O)OC)CC1C=C, rcm bond, Hoveyda's catalyst, CH2Cl2, 9.85 mM, 40.0 °C, 28.0 h) is reported as 89%.

In the case of `COc1ccc2c(O[C@@H]3C[C@H]4C(=O)N[C@@]5(C(=O)O)C[C@@H]5/C=C\CCCCC[C@H](NC(=O)OC(C)(C)C)C(=O)N4C3)cc(-c3ccccc3)nc2c1` [Compound 210], the IC50 (HCV NS3 protease type 1b) is reported as > 1000 nM.

Molecule `COC(=O)[C@@]12C[C@H]1CCCCNCC[C@H](NC(=O)OC(C)(C)C)C(=O)N1C[C@H](Oc3cc(-c4ccccc4)nc4cc(OC)ccc34)C[C@H]1C(=O)N2` has a ring closure, yield of all isomers (from COC(=O)[C@@]1(NC(=O)[C@@H]2C[C@@H](Oc3cc(-c4ccccc4)nc4cc(OC)ccc34)CN2C(=O)[C@H](CCNC(=O)OCc2ccccc2)NC(=O)OC(C)(C)C)C[C@H]1CCCC=O, amine bond, H2, Pd(OH)2, AcOH, ethanol, 44.0 mM, 25.0 °C, 40.0 h, 2 steps) of 30%.

For `COc1ccc2c(O[C@@H]3C[C@H]4C(=O)N[C@]5(C(=O)O)C[C@@H]5CCCCC[C@H](NC(=O)OC(C)(C)C)C(=O)N4C3)cc(-c3ccccc3)nc2c1` [Compound 306], the IC50 (HCV NS3 protease type 1b; [2]) was > 1000 nM.

For `COc1ccc2c(O[C@@H]3C[C@H]4C(=O)N[C@]5(C(=O)O)C[C@H]5CCN(C)CCCC[C@H](NC(=O)OC(C)(C)C)C(=O)N4C3)cc(-c3ccccc3)nc2c1` [Cpd 504], the IC50 (HCV NS3 protease type 1b; [2]) was > 1000 nM.

With `CC(C)(C)OC(=O)N[C@H]1CCCCC/C=C\[C@@H]2C[C@@]2(C(=O)O)NC(=O)[C@@H]2C[C@@H](Oc3ccnc4ccccc34)CN2C1=O` [Compound 206] the IC50 [1] was < 100 nM.

In the case of `COc1ccc2c(O[C@@H]3C[C@H]4C(=O)N[C@]5(C(=O)O)CC5CCCCN(C(C)=O)CC[C@H](NC(=O)OC(C)(C)C)C(=O)N4C3)cc(-c3ccccc3)nc2c1` (stereo partly shown) [Compound 508], the IC50 [1, 3] is reported as < 100 nM.

Work on `CC(C)(C)OC(=O)N[C@H]1CCCCCC=CCCC2CC2(C(=O)O)NC(=O)[C@@H]2C[C@@H](Oc3ccnc4ccccc34)CN2C1=O` (single isomer, unassigned) [Compound 301] yielded an IC50 [1, 3] of 100 to 1000 nM.

With `COc1ccc2c(O[C@@H]3C[C@H]4C(=O)N[C@]5(C(=O)O)C[C@H]5/C=C\CCCCC[C@H](N)C(=O)N4C3)cc(-c3ccccc3)nc2c1` [Compound 211] the IC50 [1] was < 100 nM.
